Test results as given in patent publication US10179816B2, “Pharmaceutical compositions comprising an antibody which binds the human anti-Müllerian hormone receptor type II” (LABORATOIRE FRANCAIS DU FRACTIONNEMENT DES BIOTECHNOLOGIES, priority 2011, dated 2019).
Several values for one entry are separate records, joined by “and”; a condition that tells them apart may be missing. Identical values can stand only once. Entries after “also recorded” stand apart in the source; their conditions may differ. Like-named read-outs stand apart in the source and are kept apart here.

Assays:
[1] = test system: Cov434-AMHRII Asc1a5 tumour cells (a cell line of human ovarian cancer); experiment: Anti-tumour activity of 3C23K alone or with paclitaxel in Cov434-AMHRII Asc1a5 xenograft (tumour volume, T/C ratio, statistical analysis); settings: for Individual tumour volume: individual mice;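 for all read-outs here: subcutaneous Cov434-AMHRII Asc1a5 xenografts in female Swiss nude mice, tumour volume from length×width×height/2 in mm^3, randomized D13, dosing from D14, 8 mice per group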
Experimental: Female Swiss nude mice (Harlan Laboratories) were injected subcutaneously (s.c.) with 7.10^6 cells of Cov434-AMHRII Asc1a5 (cell line of human ovarian cancer transfected with cDNA AMHRII) in Matrigel (1:1 ratio) under a volume of 150 μL on day 0 (D0).
The mice were randomized on D13, when the volume of the tumours was between 58 and 150 mm^3, and the treatments began on D14 (8 mice per group).
The tumours were usually measured twice weekly. Tumour volume (TV) was calculated using the following formula, in which the length corresponds to the largest of the tumour diameters, the width corresponds to the smallest of the tumour diameters and the tumour height: TV (mm^3)=(length×width×height)/2.
In addition, for each group, curves of tumour growth were plotted using the calculated mean tumour volumes or the median tumour volumes.
(§1) The animals were sacrificed when the tumour volumes reached 2000 mm^3 or for ethical reasons. The curves of mean values and median values as well as the statistical analyses were stopped when 20% of the mice in the group were dead.
In one experiment with 8 mice per group, the curves and analyses were stopped when fewer than 7 values per group had been obtained (7 mice alive).
The statistical differences between the different groups were analysed by ANOVA comparison using the Statgraphics centurion XV software.
The ANOVA table breaks down the variance into two components: an inter-group component and an intra-group component. The ratio F is the ratio of the inter-group estimate to the intra-group estimate. When the P value of test F is greater than or equal to 0.05, there is no statistically significant difference between the mean values of the two groups, with a confidence level of 95%. P values less than 0.05 indicate a significant difference between the mean values of the two groups with a confidence level of 95%.
A Kruskal-Wallis test was also carried out. When the P value is greater than or equal to 0.05, there is no statistically significant difference between the median of the two groups, with a confidence level of 95%. P values less than 0.05 indicate a significant difference between the medians of the two groups with a confidence level of 95%.
The treatment is initiated on day 14 after injection.

[2] = test system: Cov434-AMHRII Asc1a5 tumour cells;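 note: control mice received NaCl solution, survival endpoint was euthanasia once tumour volume hit 2000 mm^3 or on ethical grounds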
Text: A solution of NaCl was used as the control.
as §1

[3] = D13, contrast vs paclitaxel 15 mg/kg q7d4
[4] = D20, contrast vs paclitaxel 15 mg/kg q7d4
[5] = D24, contrast vs paclitaxel 15 mg/kg q7d4
[6] = D27, contrast vs paclitaxel 15 mg/kg q7d4
[7] = D31, contrast vs paclitaxel 15 mg/kg q7d4
[8] = D35, contrast vs paclitaxel 15 mg/kg q7d4
[9] = D41, contrast vs paclitaxel 15 mg/kg q7d4
[10] = Day 13, randomization, before treatment

**Q.** Which “ANOVA F-ratio” value ([1]; D13, contrast vs control) does the source give for “3C23K: mutated humanized 12G4 monoclonal antibody binding AMHR-II, produced by the 3C23K clone; light chain SEQ ID NO: 11, heavy chain SEQ ID NO: 13” here?
**A.** 0.00

**Q.** And the “Kruskal-Wallis Test” value ([1]; D13, contrast vs control)?
**A.** 0.00

**Q.** What about the “ANOVA F-ratio” value [1, 3] of the same substance?
**A.** 0.11

**Q.** What about the “Kruskal-Wallis Test” value [1, 3] of the same substance?
**A.** 0.03

**Q.** And the “ANOVA F-ratio” value ([1]; D20, contrast vs control)?
**A.** 5.33

**Q.** What about the “Kruskal-Wallis Test” value ([1]; D20, contrast vs control) of the same substance?
**A.** 4.44

**Q.** And the “ANOVA F-ratio” value [1, 4]?
**A.** 9.54

**Q.** What about the “Kruskal-Wallis Test” value [1, 4] of the same substance?
**A.** 6.39

**Q.** What about the “Statistical analysis of tumour volume (in words)” value ([1]; D20 to D41) of the same substance?
**A.** significant anti-tumour activity; also recorded: significantly different from that of paclitaxel in monotherapy

**Q.** And the “ANOVA F-ratio” value ([1]; D24, contrast vs control)?
**A.** 9.83

**Q.** What about the “Kruskal-Wallis Test” value ([1]; D24, contrast vs control) of the same substance?
**A.** 4.41

**Q.** What about the “ANOVA F-ratio” value [1, 5] of the same substance?
**A.** 8.53

**Q.** What about the “Kruskal-Wallis Test” value [1, 5] of the same substance?
**A.** 8.70

**Q.** What about the “ANOVA F-ratio” value ([1]; D27, contrast vs control) of the same substance?
**A.** 8.21

**Q.** And the “Kruskal-Wallis Test” value ([1]; D27, contrast vs control)?
**A.** 4.87

**Q.** And the “ANOVA F-ratio” value [1, 6]?
**A.** 8.92

**Q.** And the “Kruskal-Wallis Test” value [1, 6]?
**A.** 8.66

**Q.** What about the “ANOVA F-ratio” value ([1]; D31, contrast vs control) of the same substance?
**A.** 10.00

**Q.** And the “Kruskal-Wallis Test” value ([1]; D31, contrast vs control)?
**A.** 4.86

**Q.** And the “ANOVA F-ratio” value [1, 7]?
**A.** 8.01

**Q.** What about the “Kruskal-Wallis Test” value [1, 7] of the same substance?
**A.** 8.66

**Q.** What about the “ANOVA F-ratio” value ([1]; D35, contrast vs control) of the same substance?
**A.** 8.26

**Q.** And the “Kruskal-Wallis Test” value ([1]; D35, contrast vs control)?
**A.** 5.11

**Q.** What about the “ANOVA F-ratio” value [1, 8] of the same substance?
**A.** 10.47

**Q.** What about the “Kruskal-Wallis Test” value [1, 8] of the same substance?
**A.** 8.65

**Q.** What about the “ANOVA F-ratio” value ([1]; D41, contrast vs control) of the same substance?
**A.** 11.82

**Q.** And the “Kruskal-Wallis Test” value ([1]; D41, contrast vs control)?
**A.** 5.36

**Q.** And the “ANOVA F-ratio” value [1, 9]?
**A.** 12.64

**Q.** And the “Kruskal-Wallis Test” value [1, 9]?
**A.** 7.71

**Q.** What about the Mean tumour volume [1, 10] of the same substance?
**A.** 92 mm^3

**Q.** And the Median tumour volume [1, 10]?
**A.** 89 mm^3

**Q.** What about the Individual tumour volume ([1]; Day 13) of the same substance?
**A.** 144 mm3 and 98 mm3 (2×) and 90 mm3 and 76 mm3 and 73 mm3

**Q.** What about the Mean tumour volume ([1]; Day 20) of the same substance?
**A.** 111 mm^3

**Q.** What about the Median tumour volume ([1]; Day 20) of the same substance?
**A.** 107 mm^3

**Q.** And the Individual tumour volume ([1]; Day 20)?
**A.** 105 mm3 and 135 mm3 and 88 mm3 and 140 mm3 and 150 mm3 and 60 mm3

**Q.** What about the Mean tumour volume ([1]; Day 24) of the same substance?
**A.** 97 mm^3

**Q.** And the Median tumour volume ([1]; Day 24)?
**A.** 93 mm^3

**Q.** And the Individual tumour volume ([1]; Day 24)?
**A.** 158 mm3 and 180 mm3 and 0 mm3 and 102 mm3 and 114 mm3 and 68 mm3

**Q.** What about the Mean tumour volume ([1]; Day 27) of the same substance?
**A.** 144 mm^3

**Q.** What about the Median tumour volume ([1]; Day 27) of the same substance?
**A.** 129 mm^3

**Q.** And the Individual tumour volume ([1]; Day 27)?
**A.** 252 mm3 and 289 mm3 and 0 mm3 and 192 mm3 and 168 mm3 and 72 mm3

**Q.** And the Mean tumour volume ([1]; Day 31)?
**A.** 153 mm^3

**Q.** And the Median tumour volume ([1]; Day 31)?
**A.** 162 mm^3

**Q.** What about the Individual tumour volume ([1]; Day 31) of the same substance?
**A.** 184 mm3 and 404 mm3 and 0 mm3 and 204 mm3 and 198 mm3 and 68 mm3

**Q.** And the Mean tumour volume ([1]; Day 35)?
**A.** 310 mm^3

**Q.** What about the Median tumour volume ([1]; Day 35) of the same substance?
**A.** 317 mm^3

**Q.** What about the Individual tumour volume ([1]; Day 35) of the same substance?
**A.** 366 mm3 and 592 mm3 and 0 mm3 and 488 mm3 and 528 mm3 and 122 mm3

**Q.** And the Mean tumour volume ([1]; Day 41)?
**A.** 429 mm^3

**Q.** And the Median tumour volume ([1]; Day 41)?
**A.** 467 mm^3

**Q.** And the Individual tumour volume ([1]; Day 41)?
**A.** 560 mm3 and 844 mm3 and 0 mm3 and 540 mm3 and 634 mm3 and 293 mm3

**Q.** What about the Mean tumour volume ([1]; Day 45) of the same substance?
**A.** 577 mm^3

**Q.** And the Median tumour volume ([1]; Day 45)?
**A.** 577 mm^3

**Q.** And the Individual tumour volume ([1]; Day 45)?
**A.** 918 mm3 and 1256 mm3 and 0 mm3 and 624 mm3 and 731 mm3 and 392 mm3

**Q.** What about the Mean tumour volume ([1]; Day 48) of the same substance?
**A.** 664 mm^3

**Q.** And the Median tumour volume ([1]; Day 48)?
**A.** 620 mm^3

**Q.** What about the Individual tumour volume ([1]; Day 48) of the same substance?
**A.** 912 mm3 and 1672 mm3 and 0 mm3 and 551 mm3 and 833 mm3 and 381 mm3 and 689 mm3

**Q.** And the Mean tumour volume ([1]; Day 51)?
**A.** 832 mm^3

**Q.** And the Median tumour volume ([1]; Day 51)?
**A.** 712 mm^3

**Q.** What about the Individual tumour volume ([1]; Day 51) of the same substance?
**A.** 1485 mm3 and 2035 mm3 and 0 mm3 and 587 mm3 and 900 mm3 and 462 mm3 and 837 mm3

**Q.** And the Individual tumour volume ([1]; Day 55)?
**A.** 2080 mm3 and 0 mm3 and 990 mm3 and 1084 mm3 and 600 mm3 and 1309 mm3

**Q.** And the Individual tumour volume ([1]; Day 58)?
**A.** 0 mm3 and 1482 mm3 and 1350 mm3 and 842 mm3 and 1665 mm3

**Q.** And the Individual tumour volume ([1]; Day 62)?
**A.** 0 mm3 and 1080 mm3 and 1440 mm3 and 640 mm3 and 2057 mm3

**Q.** And the Individual tumour volume ([1]; Day 66)?
**A.** 0 mm3 and 1695 mm3 and 1512 mm3 and 666 mm3

**Q.** And the Individual tumour volume ([1]; Day 69)?
**A.** 0 mm3 and 1788 mm3 and 1496 mm3 and 950 mm3

**Q.** And the Individual tumour volume ([1]; Day 73)?
**A.** 0 mm3 and 1820 mm3 and 1559 mm3 and 1018 mm3

**Q.** What about the Individual tumour volume ([1]; Day 76) of the same substance?
**A.** 0 mm3 and 2296 mm3 and 1238 mm3 and 1140 mm3

**Q.** What about the Individual tumour volume ([1]; Day 80) of the same substance?
**A.** 0 mm3 and 1520 mm3 and 1254 mm3

**Q.** And the Individual tumour volume ([1]; Day 83)?
**A.** 0 mm3 and 1615 mm3 and 1463 mm3

**Q.** What about the “Anti-tumour activity (in words)” value ([1]; paclitaxel study) of the same substance?
**A.** significant anti-tumour activity; also recorded: anti-tumour effect greater than that of paclitaxel

**Q.** And the T/C ratio ([1]; relative to control group, Day 13 (before treatment))?
**A.** 95%

**Q.** And the T/C ratio ([1]; relative to control group, Day 20)?
**A.** 57%

**Q.** And the T/C ratio ([1]; relative to control group, Day 24)?
**A.** 28%

**Q.** What about the T/C ratio ([1]; relative to control group, Day 27) of the same substance?
**A.** 25%

**Q.** And the T/C ratio ([1]; relative to control group, Day 31)?
**A.** 21%

**Q.** What about the T/C ratio ([1]; relative to control group, Day 35) of the same substance?
**A.** 27%

**Q.** What about the T/C ratio ([1]; relative to control group, Day 41) of the same substance?
**A.** 29%

**Q.** What about the T/C ratio ([1]; relative to control, after D20 up to D41 (b191 prints D40)) of the same substance?
**A.** less than 29%

**Q.** What about the T/C ratio ([1]; relative to paclitaxel group, Day 13 (before treatment)) of the same substance?
**A.** 98%

**Q.** And the T/C ratio ([1]; relative to paclitaxel group, Day 20)?
**A.** 47%

**Q.** What about the T/C ratio ([1]; relative to paclitaxel group, Day 24) of the same substance?
**A.** 35%

**Q.** What about the T/C ratio ([1]; relative to paclitaxel group, Day 27) of the same substance?
**A.** 38%

**Q.** And the T/C ratio ([1]; relative to paclitaxel group, Day 31)?
**A.** 39%

**Q.** What about the T/C ratio ([1]; relative to paclitaxel group, Day 35) of the same substance?
**A.** 32%

**Q.** And the “Survival parameter: logrank test chi-squared” value ([2]; contrast vs control)?
**A.** 11.15

**Q.** What about the “Survival parameter: logrank test chi-squared” value ([2]; contrast vs paclitaxel 15 mg/kg q7d4) of the same substance?
**A.** 12.36

**Q.** And the “Survival parameter Mean” value ([2]; group of 8 mice)?
**A.** 70 days

**Q.** What about the “Survival parameter Median” value ([2]; group of 8 mice) of the same substance?
**A.** 73 days

**Q.** What about the “Observations: End of experiment TV” value ([2]; individual mice alive at day 83) of the same substance?
**A.** 1615 mm3 and 1463 mm3

**Q.** And the Observations ([2]; individual mice alive at day 83, end of experiment)?
**A.** End of experiment no

**Q.** And the “survival parameter” value ([2]; individual mice, experiment ended on day 83)?
**A.** 51 Days and 55 Days and 62 Days and 69 Days and 76 Days and 83 Days (3×)

**Q.** What about the “Statistical analysis based on the survival parameter (in words)” value ([2]; mouse, in vivo) of the same substance?
**A.** significant anti-tumour activity; also recorded: significantly different from that of paclitaxel in monotherapy
